This is an account of results in paper PMC11505038, “Kalata B1 Enhances Temozolomide Toxicity to Glioblastoma Cells” (Biomedicines, 2024).

Where two headings read alike, the source gives them in different places.

For test [1], the system named is U-87 MG cells. The experiment in a line: Phase contrast microscopy of U-87 MG cultures. In kind it is cell-based, human. To be noted: 72 h, 150 µM TMZ alone or 0.5 µM synthetic Kalata B1 alone, 20× phase contrast.
The test system of test [2] is TMZ-resistant cell line T-98G. The settings on record: ref Lee 31, read-out: Range of TMZ IC50 values summarized in the literature; cited from earlier work. The source says: Symptoms of GBM include seizures, headaches, nausea, and memory loss, and the side effects of TMZ can not only intensify headaches and nausea but also include diarrhea, constipation, loss of appetite, and sores in the mouth and throat. TMZ is an oral DNA alkylating agent that induces cell cycle arrest at G2/M, and its cytotoxicity is mediated by the addition of methyl groups at N^7 and O^6 sites on guanines and the […] in genomic DNA. A thymine instead of a cytosine is inserted during the alkylation of the O^6 site on guanine, which can cause cell death during DNA replication. ...

For test [3], the system named is SH-SY5Y human neuroblastoma cells. To be noted: MTT, 72 h, previously published data; cited from earlier work. The protocol:
(§1) Table 4 Toxicity and IC50 values of five cyclotides and TMZ in SH-SY5Y, U-87 MG, and T-98G cell cultures. | column: IC50 (μM) ± S.D. || Figure 5 Effect of natural and synthetic Kalata B1 on cell viability in SH-SY5Y, U-87MG, and T-98G cells cultures. The IC50 values for the cyclotides were determined using MTT assay after incubation with cells at increasing concentrations (0.1, 1, 5, and 10 μM) as compared to the control. Panel (A): SH-SY5Y and U-87 MG cells, and panel (B) T-98G and U-87 MG cells. Cultures (6000 cells per well in a 96-well plate), were treated with the cyclotide indicated, for 72 h, then MTT measured. Cell viability was calculated as a percentage of control cultures. IC50 values were calculated using the Best ... || To evaluate the cytotoxicity of plant-derived Kalata B1 and synthetic Kalata B1, MTT assays were performed with T-98G, U-87 MG, and SH-SY5Y cell cultures.

Test [4] concerns U-87 MG human glioblastoma cells. To be noted: MTT, 72 h, previously published data; cited from earlier work. The protocol: as §1, with “S.D. || The IC50 values of natural and synthetic cyclotides, as well as TMZ, are provided in Table 4. […] The IC50 values were calculated using nonlinear regression analysis with dose-dependent inhibition and an inhibitor vs. no ...” for “S.D.”, “(+ 4 further places)” for “To evaluate the cytotoxicity of plant-derived Kalata B1 and synthetic Kalata B1, MTT assays were performed with T-98G, U-87 MG, and SH-SY5Y cell cultures.”

Test [5] shares this test system. Description: cells. The protocol:
(§2) SH-SY5Y human neuroblastoma cells (population doubling (PD) 20−24), T-98G, and U-87 MG human glioblastoma cells were removed from cryogenic storage, thawed rapidly in a water bath (37 °C) and reconstituted in 75 cm^2 flasks. For SH-SY5Y, the following media were used: Dulbecco’s modified Eagle’s medium/Nutrient F12 Ham (Sigma-Aldrich, Cat. No. D8437) containing 10% heat-inactivated fetal bovine serum, 4 mM L-glutamine, 100 U/mL penicillin, and 100 μg/mL streptomycin. For U-87 MG and T-98G Eagle’s minimal essential medium (ATCC: The Global Bioresource Center, Cat. No. ATCC 30-2003), containing 10% heat-inactivated fetal bovine serum, 4 mM L-glutamine, 100 U/mL penicillin, and 100 μg/mL streptomycin were used.
(§3) Cells were incubated at 37 °C in a humidified atmosphere of 5% CO2 and 95% air until recovered and ready for passaging (approximately 4 days). At between 80% and 90% confluence, the cells were trypsinized with warm (37 °C) sterile 0.5% Trypsin-EDTA (Thermo Fisher, Cat. No. 15400054) and passaged into 175 cm^2 flasks, where they were left to multiply until they reached 80−90% confluence. To plate cells: cultures were trypsinized, resuspended in 20 mL sterile PBS, counted using a cell counter (Olympus cell counter model R1), and plated in 96-well plates at an optimal density of 6000 cells/well in the designated culture media. The cells were left to adhere overnight before treatment the following day, when the culture medium was removed and replaced with the treatment medium. All incubations were conducted in triplicate wells and repeated at least three times (n = 3).
(§4) To calculate TMZ IC50 values in each cell line, TMZ was dissolved in DMSO at a stock concentration of 103 mM, which was then diluted into culture medium on the day of use, with the DMSO final concentration always less than 0.1%. The following concentrations of TMZ were used in the experiments: 0.5, 5, 50, 500, 2500, 5000 μM. The media were sterilized for each treatment media with a 0.22 μm filter before they were added to cell cultures. To determine the IC50 values for each cyclotide in each cell type, cyclotides were dissolved into 10% DMSO and then dilutions used to screen cyclotides with a final DMSO concentration of less than 0.1% The following concentrations of cyclotides were used: 0.1, 1, 5, 10 μM. For co-exposure experiments, a simultaneous exposure of cyclotide and TMZ at each respective dose was added to cell cultures (100 μL final volume per well).
(§5) In accordance with the methods developed by Mosmann and colleagues, the MTT assay was conducted using the Roche cell proliferation kit (Cat. No. 11465007001). Briefly, cells that are active can cleave MTT. The MTT is originally a yellow tetrazolium salt that undergoes a colorimetric change to purple formazan crystals, and the change in absorbance can be measured as an indicator of cell viability/proliferation. For these experiments, cells were plated into 96-well flat-bottom plates, as described in the cell culture above. […] To align with our previous work, experiments were conducted with a 72 h time frame for cytotoxicity evaluation.
(§6) After a 72 h incubation period, plates were removed from the incubator and 10 µL of MTT was added to each well. The plates were returned to the incubator for an additional 4 h, after which 100 µL of a solubilization solution was added to each well. The plates were returned to incubation overnight, and the next day absorbances were read at 570 nm on a Molecular Devices FlexStation 3 using SoftMax Pro Microplate Data Acquisition and Analysis Software (version 7.0.2).

Test [6] relates to T-98G human glioblastoma cells. Description: cells. To be noted: Homo sapiens, T98G, 72 h, read-out: IC50 (μM) ± S.D. The protocol: as §2, §3, §4, §5, §6

Broadly, the IC50 is the concentration that inhibits the measured activity by half. As to `Cn1nnc2c(C(N)=O)ncn2c1=O` [TMZ, temozolomide], the “Morphological changes versus control cultures, single agent” value in test [1] is on record as “little differences”. For the same molecule, the IC50 is 250 to 1580 µM in test [2]; 393 ± 4.5 µM in test [3]; 2898 ± 6 µM in test [4]; 1617 ± 5.56 µM in test [5] (Homo sapiens, U-87 MG, 72 h, read-out: IC50 (μM) ± S.D.); 1160 ± 5.31 µM in test [6]. Moreover, the “Cell death in MTT cell viability assay” value in test [5] is on record as “less than 15%”.
